Where a name gives a salt, the structure may show the parent alone.
test system: IL-2 production; assay: Inhibition of IL-2 production in PHA-activated Jurkat cells (ELISA); type: cell-based; conditions: Homo sapiens, Jurkat, 20 h, PHA 2.5 μg/mL, IL-2 ELISA
Procedure: Jurkat cells were placed in a 96 well plate (0.5 million cells per well in 1% FBS medium) then a test compound of this invention was added at different concentrations. After 10 minutes, the cells were activated with PHA (final concentration 2.5 μg/mL) and incubated for 20 hours at 37° C. under CO2. The final volume was 200 μL. Following incubation, the cells were centrifuged and the supernatants collected and stored at −70° C. prior to assaying for IL-2 production. A commercial ELISA kit (IL-2 Eli-pair, Diaclone Research, Besancon, France) was used to detect production of IL-2, from which dose response curves were obtained. The IC50 value was calculated as the concentration at which 50% of maximum IL-2 production after stimulation was inhibited versus a non-stimulation control.

IC50 [nM] | Structure (SMILES)
17 | O=C(Nc1ccc(-c2cc(-c3nnco3)ccc2Cl)cn1)c1c(F)cccc1F [Compound 71, N-(5-(2-chloro-5-(1,3,4-oxadiazol-2-yl)phenyl)pyridin-2-yl)-2,6-difluorobenzamide]
3 | O=C(Nc1ccc(-c2cc(-c3ncco3)ccc2Cl)cn1)c1c(F)cccc1F [Compound 8, N-[5-(2-Chloro-5-oxazol-2-yl-phenyl)-pyridin-2-yl]-2,6-difluoro-benzamide]
73 | Cc1ccc(-c2nnco2)cc1-c1ccc(NC(=O)c2c(F)cccc2F)nc1 [Compound 69, 2,6-difluoro-N-(5-(2-methyl-5-(1,3,4-oxadiazol-2-yl)phenyl)pyridin-2-yl)benzamide]
2 | O=C(Nc1ccc(-c2cc(-c3nccs3)ccc2Cl)cn1)c1c(F)cccc1F [Compound 10, N-[5-(2-Chloro-5-thiazol-2-yl-phenyl)-pyridin-2-yl]-2,6-difluoro-benzamide]
12 | Cc1ccc(-c2ncco2)cc1-c1ccc(NC(=O)c2c(F)cccc2F)cn1 [Compound 20, 2,6-Difluoro-N-[6-(2-methyl-5-oxazol-2-yl-phenyl)-pyridin-3-yl]-benzamide hydrochloride]
9 | O=C(Nc1ccc(-c2cc(-c3ncco3)ccc2Cl)nc1)c1c(F)cccc1F [Compound 76, N-(6-(2-chloro-5-(oxazol-2-yl)phenyl)pyridin-3-yl)-2,6-difluorobenzamide]

Continued, compound first:

Structure (SMILES) | IC50 [nM]
COc1ccc(-c2cnco2)cc1-c1ccc(NC(=O)c2snnc2C)nc1 [Compound 67, N-(5-(2-methoxy-5-(oxazol-5-yl)phenyl)pyridin-2-yl)-4-methyl-1,2,3-thiadiazole-5-carboxamide] | 7
O=C(Nc1ccc(-c2cc(-c3nccs3)ccc2Cl)nc1)c1c(F)cccc1F [Compound 72, N-(6-(2-chloro-5-(thiazol-2-yl)phenyl)pyridin-3-yl)-2,6-difluorobenzamide] | 17
Cc1nnsc1C(=O)Nc1ccc(-c2cc(C(F)(F)F)ccc2Cl)cn1 [Compound 16, 4-Methyl-[1,2,3]thiadiazole-5-carboxylic acid [5-(2-chloro-5-trifluoromethyl-phenyl)-pyridin-2-yl]-amide] | 15
Cc1nc(NC(=O)c2c(F)cccc2F)ccc1-c1cccc(C(F)(F)F)c1 [Compound 15, 2,6-Difluoro-N-[6-methyl-5-(3-trifluoromethyl-phenyl)-pyridin-2-yl]-benzamide] | 98
Cc1ccc(-c2cnco2)cc1-c1ccc(NC(=O)c2c(F)cccc2F)nc1 [Compound 70, 2,6-difluoro-N-(5-(2-methyl-5-(oxazol-5-yl)phenyl)pyridin-2-yl)benzamide] | 9
Cc1ccc(-c2ncco2)cc1-c1ccc(NC(=O)c2snnc2C)nc1 [Compound 18, 4-Methyl-[1,2,3]thiadiazole-5-carboxylic acid [5-(2-methyl-5-oxazol-2-yl-phenyl)-pyridin-2-yl]-amide] | 12
Cc1nnsc1C(=O)Nc1ccc(-c2cc(-c3nccs3)ccc2Cl)cn1 [Compound 17, 4-Methyl-[1,2,3]thiadiazole-5-carboxylic acid [5-(2-chloro-5-thiazol-2-yl-phenyl)-pyridin-2-yl]-amide] | 2
COC(=O)c1ccc(C)c(-c2ccc(NC(=O)c3c(F)cccc3F)nc2)c1 [Compound 7, 3-[6-(2,6-Difluoro-benzoylamino)-pyridin-3-yl]-4-methyl-benzoic acid methyl ester] | 4
Cc1nnsc1C(=O)Nc1ccc(-c2cc(-c3ncco3)ccc2Cl)cn1 [Compound 19, 4-Methyl-[1,2,3]thiadiazole-5-carboxylic acid [5-(2-chloro-5-oxazol-2-yl-phenyl)-pyridin-2-yl]-amide] | 7
Cc1ccc(-c2cnco2)cc1-c1ccc(NC(=O)c2c(F)cccc2F)cn1 [Compound 78, 2,6-Difluoro-N-(6-(2-methyl-5-(oxazol-5-yl)phenyl)pyridin-3-yl)benzamide] | 10
Cc1ccc(-c2nnco2)cc1-c1ccc(NC(=O)c2c(F)cccc2F)cn1 [Compound 75, 2,6-Difluoro-N-(6-(2-methyl-5-(1,3,4-oxadiazol-2-yl)phenyl)pyridin-3-yl)benzamide] | 98
Cc1ccc(-c2nccs2)cc1-c1ccc(NC(=O)c2c(F)cccc2F)cn1 [Compound 74, 2,6-Difluoro-N-(6-(2-methyl-5-(thiazol-2-yl)phenyl)pyridin-3-yl)benzamide] | 25
Cc1ccc(-c2ccno2)cc1-c1ccc(NC(=O)c2snnc2C)nc1 [Compound 68, N-(5-(5-(isoxazol-5-yl)-2-methylphenyl)pyridin-2-yl)-4-methyl-1,2,3-thiadiazole-5-carboxamide] | 38
Cc1cc(NC(=O)c2c(F)cccc2F)ncc1-c1cccc(C(F)(F)F)c1 [Compound 14, 2,6-Difluoro-N-[4-methyl-5-(3-trifluoromethyl-phenyl)-pyridin-2-yl]-benzamide] | 16
Cc1ccc(-c2cnco2)cc1-c1ccc(NC(=O)c2snnc2C)nc1 [Compound 21, 4-methyl-N-(5-(2-methyl-5-(oxazol-5-yl)phenyl)pyridin-2-yl)-1,2,3-thiadiazole-5-carboxamide] | 31
COC(=O)c1ccc(Cl)c(-c2ccc(NC(=O)c3c(F)cccc3F)nc2)c1 [Compound 6, 4-Chloro-3-[6-(2,6-difluoro-benzoylamino)-pyridin-3-yl]-benzoic acid methyl ester] | 6
Cc1ccc(-c2ncco2)cc1-c1ccc(NC(=O)c2ccc(Cl)cc2F)cn1 [Compound 80, 4-chloro-2-fluoro-N-(6-(2-methyl-5-(oxazol-2-yl)phenyl)pyridin-3-yl)benzamide] | 180

same assay, conditions: PHA 2.5 μg/mL, 20 hours, IL-2 ELISA

IC50 [nM] | Structure (SMILES)
14 | Cc1ccc(-c2ncco2)cc1-c1ccc(NC(=O)c2c(F)cccc2F)cn1 [Compound 13, 2,6-Difluoro-N-[6-(2-methyl-5-oxazol-2-yl-phenyl)-pyridin-3-yl]-benzamide]
11 | O=C(Nc1ccc(-c2cc(-c3ncco3)ccc2Cl)nc1)c1c(F)cccc1F [Compound 77, N-(6-(2-chloro-5-(oxazol-2-yl)phenyl)pyridin-3-yl)-2,6-difluorobenzamide hydrochloric acid salt]
